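In this assay, cells in 96-well plates receive the compound at five concentrations for 48 hours. Endpoints are linearly interpolated between the surrounding concentrations. The concentration for full growth arrest is given as TGI.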
Legend:
Experiment in all cases: inhibition of tumour cell growth, NCI panel, 48 h
786-0 renal = tested on: 786-0 renal
A498 renal = tested on: A498 renal
A549 NSCLC = tested on: A549 NSCLC
ACHN renal = tested on: ACHN renal
BT-549 breast = tested on: BT-549 breast
CAKI-1 renal = tested on: CAKI-1 renal
CCRF-CEM leukemia = tested on: CCRF-CEM leukemia
COLO 205 colon = tested on: COLO 205 colon
DU-145 prostate = tested on: DU-145 prostate
EKVX NSCLC = tested on: EKVX NSCLC
HCC-2998 colon = tested on: HCC-2998 colon
HCT-116 colon = tested on: HCT-116 colon
HCT-15 colon = tested on: HCT-15 colon
HL-60(TB) leukemia = tested on: HL-60(TB) leukemia
HOP-62 NSCLC = tested on: HOP-62 NSCLC
HOP-92 NSCLC = tested on: HOP-92 NSCLC
HS 578T breast = tested on: HS 578T breast
HT29 colon = tested on: HT29 colon
IGROV1 ovarian = tested on: IGROV1 ovarian
K-562 leukemia = tested on: K-562 leukemia
KM12 colon = tested on: KM12 colon
LOX IMVI melanoma = tested on: LOX IMVI melanoma
M14 melanoma = tested on: M14 melanoma
MALME-3M melanoma = tested on: MALME-3M melanoma
MCF7 breast = tested on: MCF7 breast
MDA-MB-435 = tested on: MDA-MB-435
MDA-N = tested on: MDA-N
MOLT-4 leukemia = tested on: MOLT-4 leukemia
NCI-H226 lung = tested on: NCI-H226 lung
NCI-H23 lung = tested on: NCI-H23 lung
NCI-H460 lung = tested on: NCI-H460 lung
NCI-H522 lung = tested on: NCI-H522 lung
NCI/ADR-RES ovarian = tested on: NCI/ADR-RES ovarian
OVCAR-3 ovarian = tested on: OVCAR-3 ovarian
OVCAR-4 ovarian = tested on: OVCAR-4 ovarian
OVCAR-5 ovarian = tested on: OVCAR-5 ovarian
OVCAR-8 ovarian = tested on: OVCAR-8 ovarian
PC-3 prostate = tested on: PC-3 prostate
RPMI-8226 leukemia = tested on: RPMI-8226 leukemia
RXF 393 renal = tested on: RXF 393 renal
SF-268 CNS = tested on: SF-268 CNS
SF-295 CNS = tested on: SF-295 CNS
SF-539 CNS = tested on: SF-539 CNS
SK-MEL-2 melanoma = tested on: SK-MEL-2 melanoma
SK-MEL-28 melanoma = tested on: SK-MEL-28 melanoma
SK-MEL-5 melanoma = tested on: SK-MEL-5 melanoma
SK-OV-3 ovarian = tested on: SK-OV-3 ovarian
SN12C renal = tested on: SN12C renal
SNB-19 CNS = tested on: SNB-19 CNS
SNB-75 CNS = tested on: SNB-75 CNS
SR leukemia = tested on: SR leukemia
SW-620 colon = tested on: SW-620 colon
T-47D breast = tested on: T-47D breast
TK-10 renal = tested on: TK-10 renal
U251 CNS = tested on: U251 CNS
UACC-62 melanoma = tested on: UACC-62 melanoma
UO-31 renal = tested on: UO-31 renal
UACC-257 melanoma = tested on: UACC-257 melanoma
MDA-MB-231 breast = tested on: MDA-MB-231 breast

SMILES: COc1oc(C(=O)NC2CCCCC2)c(-c2ccc(Cl)cc2)c1S(=O)(=O)c1ccccc1
- TGI (786-0 renal): 3.59 µM
- TGI (A498 renal): 4.08 µM
- TGI (A549 NSCLC): > 100 µM
- TGI (ACHN renal): > 100 µM
- TGI (BT-549 breast): > 22.1 µM
- TGI (CAKI-1 renal): 10.7 µM
- TGI (CCRF-CEM leukemia): 4.66 µM
- TGI (COLO 205 colon): 44.9 µM
- TGI (DU-145 prostate): > 74.4 µM
- TGI (EKVX NSCLC): > 30.9 µM
- TGI (HCC-2998 colon): > 100 µM
- TGI (HCT-116 colon): > 100 µM
- TGI (HCT-15 colon): > 100 µM
- TGI (HL-60(TB) leukemia): 6.4 µM
- TGI (HOP-62 NSCLC): 22 µM
- TGI (HOP-92 NSCLC): 3.06 µM
- TGI (HS 578T breast): 68.6 µM
- TGI (HT29 colon): 5.42 µM
- TGI (IGROV1 ovarian): 3.35 µM
- TGI (K-562 leukemia): > 52.4 µM
- TGI (KM12 colon): 25.2 µM
- TGI (LOX IMVI melanoma): 7.54 µM
- TGI (M14 melanoma): > 100 µM
- TGI (MALME-3M melanoma): > 45.9 µM
- TGI (MCF7 breast): > 100 µM
- TGI (MDA-MB-435): 28.9 µM
- TGI (MDA-N): > 100 µM
- TGI (MOLT-4 leukemia): > 75.2 µM
- TGI (NCI-H226 lung): > 100 µM
- TGI (NCI-H23 lung): > 25.5 µM
- TGI (NCI-H460 lung): > 36.1 µM
- TGI (NCI-H522 lung): 2.94 µM
- TGI (NCI/ADR-RES ovarian): 8.42 µM
- TGI (OVCAR-3 ovarian): 3.59 µM
- TGI (OVCAR-4 ovarian): 3.51 µM
- TGI (OVCAR-5 ovarian): > 100 µM
- TGI (OVCAR-8 ovarian): > 19.8 µM
- TGI (PC-3 prostate): > 41.3 µM
- TGI (RPMI-8226 leukemia): 5.59 µM
- TGI (RXF 393 renal): 9.76 µM
- TGI (SF-268 CNS): 10.8 µM
- TGI (SF-295 CNS): > 62 µM
- TGI (SF-539 CNS): 14.4 µM
- TGI (SK-MEL-2 melanoma): 39 µM
- TGI (SK-MEL-28 melanoma): > 100 µM
- TGI (SK-MEL-5 melanoma): > 100 µM
- TGI (SK-OV-3 ovarian): > 100 µM
- TGI (SN12C renal): > 46.2 µM
- TGI (SNB-19 CNS): > 100 µM
- TGI (SNB-75 CNS): > 100 µM
- TGI (SR leukemia): > 25.3 µM
- TGI (SW-620 colon): > 100 µM
- TGI (T-47D breast): > 100 µM
- TGI (TK-10 renal): > 89.1 µM
- TGI (U251 CNS): 7.61 µM
- TGI (UACC-62 melanoma): 72.2 µM
- TGI (UO-31 renal): 3.22 µM

SMILES: O=[N+]([O-])c1ccc(N/N=C2\C=CCCC2)c([N+](=O)[O-])c1
- TGI (786-0 renal): > 100 µM
- TGI (A549 NSCLC): > 100 µM
- TGI (ACHN renal): > 100 µM
- TGI (BT-549 breast): > 100 µM
- TGI (CAKI-1 renal): > 100 µM
- TGI (CCRF-CEM leukemia): > 100 µM
- TGI (COLO 205 colon): > 100 µM
- TGI (DU-145 prostate): > 100 µM
- TGI (EKVX NSCLC): > 100 µM
- TGI (HCT-116 colon): > 100 µM
- TGI (HCT-15 colon): > 100 µM
- TGI (HL-60(TB) leukemia): > 100 µM
- TGI (HOP-62 NSCLC): > 100 µM
- TGI (HOP-92 NSCLC): > 100 µM
- TGI (HS 578T breast): > 100 µM
- TGI (HT29 colon): > 100 µM
- TGI (IGROV1 ovarian): > 100 µM
- TGI (K-562 leukemia): > 100 µM
- TGI (KM12 colon): > 100 µM
- TGI (LOX IMVI melanoma): > 100 µM
- TGI (M14 melanoma): > 100 µM
- TGI (MALME-3M melanoma): > 100 µM
- TGI (MCF7 breast): > 100 µM
- TGI (MDA-MB-435): > 100 µM
- TGI (MDA-N): > 100 µM
- TGI (NCI-H226 lung): > 100 µM
- TGI (NCI-H23 lung): > 100 µM
- TGI (NCI-H460 lung): > 100 µM
- TGI (NCI-H522 lung): > 100 µM
- TGI (NCI/ADR-RES ovarian): > 100 µM
- TGI (OVCAR-3 ovarian): > 100 µM
- TGI (OVCAR-4 ovarian): > 100 µM
- TGI (OVCAR-5 ovarian): > 100 µM
- TGI (OVCAR-8 ovarian): > 100 µM
- TGI (PC-3 prostate): > 100 µM
- TGI (RPMI-8226 leukemia): > 100 µM
- TGI (SF-268 CNS): > 100 µM
- TGI (SF-295 CNS): > 100 µM
- TGI (SK-MEL-2 melanoma): > 100 µM
- TGI (SK-MEL-28 melanoma): > 100 µM
- TGI (SK-MEL-5 melanoma): > 100 µM
- TGI (SK-OV-3 ovarian): > 100 µM
- TGI (SN12C renal): > 100 µM
- TGI (SNB-19 CNS): > 100 µM
- TGI (SNB-75 CNS): 73 µM
- TGI (SR leukemia): > 100 µM
- TGI (SW-620 colon): > 100 µM
- TGI (T-47D breast): > 100 µM
- TGI (TK-10 renal): > 100 µM
- TGI (U251 CNS): > 100 µM
- TGI (UACC-257 melanoma): > 100 µM
- TGI (UACC-62 melanoma): > 100 µM
- TGI (UO-31 renal): > 100 µM

SMILES: [N-]=[N+]=NC1=C(C(=O)c2ccccc2)C(=O)c2cccc3cccc1c23
- TGI (786-0 renal): > 100 µM
- TGI (A549 NSCLC): > 100 µM
- TGI (ACHN renal): > 100 µM
- TGI (BT-549 breast): > 100 µM
- TGI (CAKI-1 renal): > 100 µM
- TGI (CCRF-CEM leukemia): > 100 µM
- TGI (COLO 205 colon): > 100 µM
- TGI (EKVX NSCLC): 89.2 µM
- TGI (HCT-116 colon): > 100 µM
- TGI (HOP-62 NSCLC): 62 µM
- TGI (HOP-92 NSCLC): > 100 µM
- TGI (HS 578T breast): 61.4 µM
- TGI (HT29 colon): > 100 µM
- TGI (IGROV1 ovarian): 88.5 µM
- TGI (K-562 leukemia): > 100 µM
- TGI (KM12 colon): > 100 µM
- TGI (M14 melanoma): > 100 µM
- TGI (MALME-3M melanoma): > 100 µM
- TGI (MCF7 breast): > 100 µM
- TGI (MDA-MB-231 breast): 87.2 µM
- TGI (MDA-MB-435): > 100 µM
- TGI (MDA-N): > 100 µM
- TGI (MOLT-4 leukemia): > 100 µM
- TGI (NCI-H226 lung): > 100 µM
- TGI (NCI-H23 lung): > 100 µM
- TGI (NCI-H522 lung): 81.5 µM
- TGI (NCI/ADR-RES ovarian): > 100 µM
- TGI (OVCAR-3 ovarian): > 100 µM
- TGI (OVCAR-4 ovarian): > 100 µM
- TGI (OVCAR-5 ovarian): > 100 µM
- TGI (OVCAR-8 ovarian): > 100 µM
- TGI (PC-3 prostate): > 100 µM
- TGI (RPMI-8226 leukemia): > 100 µM
- TGI (RXF 393 renal): 71 µM
- TGI (SF-268 CNS): 36.2 µM
- TGI (SF-295 CNS): > 100 µM
- TGI (SF-539 CNS): > 100 µM
- TGI (SK-MEL-2 melanoma): 69.6 µM
- TGI (SK-MEL-28 melanoma): > 100 µM
- TGI (SK-MEL-5 melanoma): > 100 µM
- TGI (SK-OV-3 ovarian): > 100 µM
- TGI (SN12C renal): > 100 µM
- TGI (SNB-19 CNS): > 100 µM
- TGI (SNB-75 CNS): 33.4 µM
- TGI (SR leukemia): 77.6 µM
- TGI (SW-620 colon): > 100 µM
- TGI (T-47D breast): > 100 µM
- TGI (TK-10 renal): > 100 µM
- TGI (U251 CNS): > 100 µM
- TGI (UACC-257 melanoma): > 100 µM
- TGI (UACC-62 melanoma): > 100 µM
- TGI (UO-31 renal): > 100 µM

Reference: PubChem BioAssay (NCI)
